Where two headings read alike, the source gives them in different places.
Test: Tibolone impurities (A, B, C, total except C) in tablets by HPLC just after production and during storage (stability)
Assay type: physicochemical
Description: Tibolone tablets were manufactured by a conventional direct compression process. Briefly, the raw materials were weighed, sieved and homogenized. Following homogenization, the mixture was compressed into tablets. Just after production (i.e. at t=0), the tablets were analyzed for tibolone impurities by a chromatography (HPLC) method that allows a suitable separation between the peaks of impurities A, B and C (Tibolone degradation products described in the current European Pharmacopeia Monograph 1739) under the following conditions: • Equipment: HPLC system • Pre-column: Universal RP, EC 4/3 • Stationary phase: Nucleodur 100-3 C18ec Particulars' diameter: 3 μm • Length: 150 mm • Internal diameter: 4.6 mm • Mobile phase: • Solvent A: water for chromatography R • Solvent B: Acetonitrile for chromatography R • Gradient program: […]
The tablets were packed into PVC/Aluminium blisters and stored either 1) at a temperature of 25° C. and a relative humidity of 60% (long term stability conditions for Zone II), 2) at a temperature of 40° C. and a relative humidity of 75% (accelerated stability conditions), or 3) at ambient conditions (laboratory conditions, less than 25° C., no humidity control). After 1, 2, 3 and/or 6 months of storage (up to 18 months for batches #2 and #3), the tablets were analyzed for tibolone impurities.

Structure (SMILES) | stabilizing effect on tibolone in the tablets (in words) (excipient added to tibolone tablets) | stabilizing effect on tibolone in the tablets (in words)
O=C(O)CN(CCN(CC(=O)O)CC(=O)O)CC(=O)O [EDTA] | does not further stabilize | –
CCCCCCCCCCCCCCCC(=O)OC[C@H](O)[C@H]1OC(=O)C(O)=C1O [ascorbyl palmitate] | – | additional stabilizing effect

Source: US10736907B2, “Use of sugar-alcohols in tibolone compositions” (Mithra Pharmaceuticals S.A., priority 2016, dated 2020)
